Laboratory results: ChEMBL document CHEMBL1157533 (J Med Chem, 2008)
pEC50: −log10 of the molar value.

What was measured:
[1] = biological target: Beta-1 adrenergic receptor (Homo sapiens, UniProt P08588); experiment: Agonist activity at human recombinant beta-1 adrenergic receptor expressed in CHO cells assessed as cAMP accumulation by enzyme immuno assay; assay type: functional, cell-based
[2] = biological target: Beta-3 adrenergic receptor (Homo sapiens, UniProt P13945); experiment: Agonist activity at human recombinant beta3 adrenergic receptor expressed in CHO cells assessed as cAMP accumulation by enzyme immuno assay; assay type: functional, cell-based
[3] = Bioavailability in dog at 0.1 mg/kg, po by cassette assay; assay type: ADME, organism-based, Canis lupus familiaris; details: in vivo
[4] = Terminal half life in dog at 0.1 mg/kg, iv by cassette assay; assay type: ADME, organism-based, Canis lupus familiaris; parameters: dose 0.1 mg/kg, route intravenous; details: in vivo, read-out: beta t1/2 (converted)
[5] = Total clearance in dog at 0.1 mg/kg, iv by cassette assay; assay type: ADME, organism-based, Canis lupus familiaris; parameters: dose 0.1 mg/kg, route intravenous; details: in vivo
[6] = AUC (0 to 24 hrs) in dog at 0.1 mg/kg, po by cassette assay; assay type: ADME, organism-based, Canis lupus familiaris; parameters: time < 24 hr, dose 0.1 mg/kg, route oral; details: plasma
[7] = Cmax in dog at 0.1 mg/kg, po by cassette assay; assay type: ADME, organism-based, Canis lupus familiaris; parameters: dose 0.1 mg/kg, route oral; details: in vivo
[8] = biological target: Beta-2 adrenergic receptor (Homo sapiens, UniProt P07550); experiment: Agonist activity at human recombinant beta2 adrenergic receptor expressed in CHO cells assessed as cAMP accumulation by enzyme immuno assay; assay type: functional, cell-based
[9] = Terminal half life in rat plasma at 1.0 mg/kg, iv; assay type: ADME, organism-based; parameters: dose 1 mg/kg, route intravenous; details: read-out: beta t1/2 (converted)
[10] = Total clearance in rat at 1.0 mg/kg, iv; assay type: ADME, organism-based; parameters: dose 1 mg/kg, route intravenous; details: in vivo
[11] = Terminal half life in dog at 0.1 mg/kg, iv; assay type: ADME, organism-based, Canis lupus familiaris; parameters: dose 0.1 mg/kg, route intravenous; details: in vivo, read-out: beta t1/2 (converted)
[12] = AUC (0 to 24 hrs) in dog at 0.1 mg/kg, po; assay type: ADME, organism-based, Canis lupus familiaris; parameters: time < 24 hr, dose 0.1 mg/kg, route oral; details: plasma
[13] = Bioavailability in rat at 1.0 mg/kg, po; assay type: ADME, organism-based; details: in vivo
[14] = Cmax in rat at 1.0 mg/kg, po; assay type: ADME, organism-based; parameters: dose 1 mg/kg, route oral; details: in vivo
[15] = Cmax in dog at 0.1 mg/kg, po; assay type: ADME, organism-based, Canis lupus familiaris; parameters: dose 0.1 mg/kg, route oral; details: in vivo
[16] = AUC (0 to 24 hrs) in rat at 1.0 mg/kg, po; assay type: ADME, organism-based; parameters: time < 24 hr, dose 1 mg/kg, route oral; details: plasma
[17] = Total clearance in dog at 0.1 mg/kg, iv; assay type: ADME, organism-based, Canis lupus familiaris; parameters: dose 0.1 mg/kg, route intravenous; details: in vivo
[18] = Bioavailability in dog at 0.1 mg/kg, po; assay type: ADME, organism-based, Canis lupus familiaris; details: in vivo
[19] = Protein binding in Beagle dog serum; assay type: ADME, cell-free, Canis lupus familiaris; details: read-out: PPB (converted)
[20] = Bioavailability in dog at 0.32 mg/kg, po; assay type: ADME, organism-based, Canis lupus familiaris; details: in vivo
Canis familiaris = species: Canis familiaris; experiment: cells; details: Canis lupus familiaris, 3 h
Description: Inhibition of carbachol-induced increase in intravesical pressure in intraduodenally dosed Beagle dog OAB model for 180 mins

[21] = AUC (0 to 24 hrs) in monkey at 0.32 mg/kg, po by cassette assay; assay type: ADME, organism-based, Macaca mulatta; parameters: time < 24 hr, dose 0.32 mg/kg, route oral; details: rhesus monkey, plasma
[22] = Total clearance in monkey at 0.32 mg/kg, iv by cassette assay; assay type: ADME, organism-based, Macaca mulatta; parameters: dose 0.32 mg/kg, route intravenous; details: rhesus monkey, in vivo
[23] = Metabolic stability assessed as intrinsic clearance in human liver microsome in presence of NADPH-generating system; assay type: ADME; details: liver microsomes
[24] = Bioavailability in monkey at 0.32 mg/kg, po by cassette assay; assay type: ADME, organism-based, Macaca mulatta; details: rhesus monkey, in vivo
[25] = AUC (0 to 24 hrs) in dog at 0.32 mg/kg, po; assay type: ADME, organism-based, Canis lupus familiaris; parameters: time < 24 hr, dose 0.32 mg/kg, route oral; details: plasma
[26] = Terminal half life in dog plasma at 0.32 mg/kg, iv; assay type: ADME, organism-based, Canis lupus familiaris; parameters: dose 0.32 mg/kg, route intravenous; details: read-out: beta t1/2 (converted)
[27] = Metabolic stability assessed as intrinsic clearance in dog liver microsome in presence of NADPH-generating system; assay type: ADME, Canis lupus familiaris; details: liver microsomes
[28] = Metabolic stability assessed as intrinsic clearance in rat liver microsome in presence of NADPH-generating system; assay type: ADME; details: liver microsomes
[29] = biological target: Beta-3 adrenergic receptor (Canis lupus familiaris, UniProt O02662); experiment: Agonist activity at dog recombinant beta3 adrenergic receptor expressed in CHO cells assessed as cAMP accumulation by enzyme immuno assay; assay type: functional, cell-based
[30] = Terminal half life in monkey plasma at 0.32 mg/kg, iv by cassette assay; assay type: ADME, organism-based, Macaca mulatta; parameters: dose 0.32 mg/kg, route intravenous; details: rhesus monkey, read-out: beta t1/2 (converted)
[31] = Total clearance in dog at 0.32 mg/kg, iv; assay type: ADME, organism-based, Canis lupus familiaris; parameters: dose 0.32 mg/kg, route intravenous; details: in vivo
[32] = Metabolic stability assessed as intrinsic clearance in monkey liver microsome in presence of NADPH-generating system; assay type: ADME, Macaca mulatta; details: rhesus monkey, liver microsomes
[33] = Cmax in dog at 0.32 mg/kg, po; assay type: ADME, organism-based, Canis lupus familiaris; parameters: dose 0.32 mg/kg, route oral; details: in vivo

Beta-2 adrenergic receptor, sequence (P07550 whole entry): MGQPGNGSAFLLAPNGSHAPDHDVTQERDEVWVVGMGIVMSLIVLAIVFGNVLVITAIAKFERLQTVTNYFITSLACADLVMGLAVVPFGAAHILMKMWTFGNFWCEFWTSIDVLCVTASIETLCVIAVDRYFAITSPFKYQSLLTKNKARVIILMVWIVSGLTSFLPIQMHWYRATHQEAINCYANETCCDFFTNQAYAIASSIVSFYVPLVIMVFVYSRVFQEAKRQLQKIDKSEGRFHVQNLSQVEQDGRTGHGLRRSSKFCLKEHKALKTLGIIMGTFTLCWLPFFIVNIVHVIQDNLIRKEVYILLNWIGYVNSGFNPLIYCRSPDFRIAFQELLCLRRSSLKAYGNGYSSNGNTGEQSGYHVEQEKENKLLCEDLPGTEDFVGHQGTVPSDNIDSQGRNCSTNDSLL
Beta-1 adrenergic receptor, sequence (P08588 whole entry): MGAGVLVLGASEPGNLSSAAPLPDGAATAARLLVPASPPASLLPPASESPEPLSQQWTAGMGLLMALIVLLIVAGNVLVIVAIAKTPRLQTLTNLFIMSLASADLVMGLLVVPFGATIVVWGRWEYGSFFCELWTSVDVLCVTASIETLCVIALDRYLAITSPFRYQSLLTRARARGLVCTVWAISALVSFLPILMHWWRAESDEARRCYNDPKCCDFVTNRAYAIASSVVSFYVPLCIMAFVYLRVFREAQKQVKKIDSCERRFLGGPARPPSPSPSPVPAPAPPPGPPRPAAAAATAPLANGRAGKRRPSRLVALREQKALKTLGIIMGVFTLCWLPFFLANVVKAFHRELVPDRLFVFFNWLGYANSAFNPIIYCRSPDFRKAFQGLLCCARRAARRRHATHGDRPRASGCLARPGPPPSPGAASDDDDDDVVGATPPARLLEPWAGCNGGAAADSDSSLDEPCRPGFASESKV
Beta-3 adrenergic receptor (Homo sapiens, UniProt P13945), sequence (P13945 whole entry): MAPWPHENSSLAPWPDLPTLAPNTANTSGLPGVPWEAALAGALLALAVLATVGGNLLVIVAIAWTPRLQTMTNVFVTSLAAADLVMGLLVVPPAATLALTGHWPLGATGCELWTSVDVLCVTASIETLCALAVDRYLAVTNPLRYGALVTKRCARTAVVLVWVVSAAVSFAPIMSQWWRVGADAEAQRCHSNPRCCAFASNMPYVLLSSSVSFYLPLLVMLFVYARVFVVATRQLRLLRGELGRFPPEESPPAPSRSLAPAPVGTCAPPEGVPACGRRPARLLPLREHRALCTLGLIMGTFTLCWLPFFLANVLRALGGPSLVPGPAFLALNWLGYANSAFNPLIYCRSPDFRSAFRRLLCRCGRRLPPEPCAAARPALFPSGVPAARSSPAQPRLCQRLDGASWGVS
Beta-3 adrenergic receptor (Canis lupus familiaris, UniProt O02662), sequence (O02662 whole entry): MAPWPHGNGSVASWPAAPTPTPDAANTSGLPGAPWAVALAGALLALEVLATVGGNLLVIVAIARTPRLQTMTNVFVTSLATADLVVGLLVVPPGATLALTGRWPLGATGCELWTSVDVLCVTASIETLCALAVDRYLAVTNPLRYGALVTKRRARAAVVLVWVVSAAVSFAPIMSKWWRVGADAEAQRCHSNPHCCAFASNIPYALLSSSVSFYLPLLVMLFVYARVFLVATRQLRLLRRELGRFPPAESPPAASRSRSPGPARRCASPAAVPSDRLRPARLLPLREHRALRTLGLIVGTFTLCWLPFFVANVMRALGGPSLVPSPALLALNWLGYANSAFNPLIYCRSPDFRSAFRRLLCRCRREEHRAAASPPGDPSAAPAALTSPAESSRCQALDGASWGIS

Compound CC(C)Oc1cc(-c2ccc(OCCNC[C@H](O)c3ccccc3)cc2)ccc1C(=O)O has a pEC50 [1] of 6.29 and a pEC50 [2] of 8.62.

For COc1cc(-c2ccc(C[C@@H](C)NC[C@H](O)c3ccccc3)cc2)ccc1C(=O)O, the pEC50 [1] was 7.08 and the pEC50 [2] was 9.10.

C[C@H](Cc1ccc(-c2ccc(C(=O)O)c(OC3CCCCC3)c2)cc1)NC[C@H](O)c1cccnc1 gave a pEC50 [1] of 7.62 and a pEC50 [2] of 10.16.

Work on CC(C)Oc1cc(-c2ccc(CCNC[C@H](O)c3cccc(N)c3)cc2)ccc1C(=O)O yielded a pEC50 [1] of less than 6.00 and a pEC50 [2] of 8.09.

In the case of O=C(O)c1ccc(-c2ccc(OCCNC[C@H](O)c3ccccc3)cc2)cc1OC1CCCCC1, the pEC50 [1] was 7.04 and the pEC50 [2] was 9.80.

For CC(C)Oc1cc(-c2ccc(CCNC[C@H](O)c3cccc(NS(C)(=O)=O)c3)cc2)ccc1C(=O)O, the pEC50 [1] was less than 6.00 and the pEC50 [2] was 7.52.

CC(C)Oc1cc(-c2ccc(CCN[C@@H](C)[C@H](O)c3ccc(O)cc3)cc2)ccc1C(=O)O gave a pEC50 [1] of 6.30 and a pEC50 [2] of 9.85.

In the case of C[C@@H](Cc1ccc(-c2ccc(C(=O)O)cc2)cc1)NC[C@H](O)c1cccc(Cl)c1, the pEC50 [1] was 7.92 and the pEC50 [2] was 8.22.

Compound CCCOc1cc(-c2ccc(NCCNC[C@H](O)c3cccc(Cl)c3)cc2)ccc1C(=O)O has a pEC50 [1] of 7.96 and a pEC50 [2] of 9.68.

In the case of CC(C)Oc1cc(-c2ccc(C[C@@H](C)NC[C@H](O)c3cccc(Cl)c3)cc2)ccc1C(=O)O, the pEC50 [1] was 7.43 and the pEC50 [2] was 9.72.

In the case of CC(C)COc1cc(-c2ccc(OCCNC[C@H](O)c3ccccc3)cc2)ccc1C(=O)O, the pEC50 [1] was 6.40 and the pEC50 [2] was 9.26.

For CC(C)Oc1cc(-c2ccc(CCNC[C@H](O)c3cccc(O)c3)cc2)ccc1C(=O)O, the pEC50 [1] was 6.36 and the pEC50 [2] was 10.21.

CCCOc1cc(-c2ccc(OCCNC[C@H](O)c3cccc(Cl)c3)cc2)ccc1C(=O)O showed a bioavailability [3] of 69.7%, a half-life [4] of 10.9 h and a clearance [5] of 2.9 mL/min/kg. It also gave an AUC(0-t) at 24 h [6] of 420 ng·h/mL, a pEC50 [1] of 6.92 and a pEC50 [2] of 9.68. The Cmax [7] was 40.6 ng/mL.

CC(C)Cc1cc(-c2ccc(CCN[C@@H](C)[C@H](O)c3ccccc3)cc2)ccc1C(=O)O gave a pEC50 [1] of 6.52 and a pEC50 [2] of 9.85.

For CCCOc1cc(-c2ccc(CCN[C@@H](C)[C@H](O)c3ccccc3)cc2)ccc1C(=O)O, the pEC50 [1] was 6.16, the pEC50 [8] was less than 5.00 and the pEC50 [2] was 9.37.

For C[C@H](Cc1ccc(-c2ccc(C(=O)O)cc2)cc1)NC[C@H](O)c1cccnc1, the half-life [9] was 1.91 h, the clearance [10] was 34.3 mL/min/kg and the half-life [11] was 6.4 h. It also gave an AUC(0-t) at 24 h [12] of 207 ng·h/mL, a bioavailability [13] of 25.2% and a Cmax [14] of 22 ng/mL. For the same compound, the pEC50 [1] was 7.12, the pEC50 [8] was less than 6.00 and the Cmax [15] was 30.5 ng/mL. For the same compound, the pEC50 [2] was 9.31, the AUC(0-t) at 24 h [16] was 103 ng·h/mL and the clearance [17] was 4.4 mL/min/kg. The bioavailability [18] was 59.7%.

For CC(C)Oc1cc(-c2ccc(CC(C)(C)NC[C@H](O)c3ccccc3)cc2)ccc1C(=O)O, the pEC50 [1] was 6.55 and the pEC50 [2] was 9.04.

Compound O=C(O)c1ccc(-c2ccc(OCCNC[C@H](O)c3cccc(Cl)c3)cc2)cc1OC1CCCCC1 has a pEC50 [1] of 7.28 and a pEC50 [2] of 9.57.

CC(C)Oc1cc(-c2ccc(CCNC[C@H](O)c3ccc(N)nc3)cc2)ccc1C(=O)O showed a pEC50 [1] of 6.89, a pEC50 [8] of less than 5.00 and a pEC50 [2] of 9.72.

CC(C)Oc1cc(-c2ccc(C[C@@H](C)NC[C@H](O)c3cccnc3)cc2)ccc1C(=O)O showed a pEC50 [1] of 7.10, a pEC50 [8] of less than 6.00 and a pEC50 [2] of 10.00.

With CCOC(=O)COc1ccc2c(c1)C[C@@H](NC[C@H](O)c1cccc(Cl)c1)CCC2 the fraction unbound [19] was 0.06.

With CC(C)Cc1cc(-c2ccc(CCNC[C@H](O)c3ccc(N)nc3)cc2)ccc1C(=O)O the half-life [9] was 1.9 h, the bioavailability [20] was 27% and the pEC50 (Canis familiaris) was 8.74. The ED50 (Canis familiaris) was 0.0161 mg/kg, the AUC(0-t) at 24 h [21] was 90.8 ng·h/mL and the clearance [22] was 24.3 mL/min/kg. The CLint scaled [23] was 2.2 mL/min/kg, the clearance [10] was 8.5 mL/min/kg and the bioavailability [24] was 48.6%. For the same compound, the AUC(0-t) at 24 h [25] was 177 ng·h/mL, the half-life [26] was 7.6 h and the bioavailability [13] was 12.4%. The fraction unbound [19] was 0.2, the CLint scaled [27] was less than 2 mL/min/kg and the CLint scaled [28] was less than 2 mL/min/kg. It also gave a pEC50 [29] of 8.49, a Cmax [14] of 21.9 ng/mL and a pEC50 [1] of 6.82. It also gave a pEC50 [8] of 5.49, a half-life [30] of 5.9 h and a clearance [31] of 7.9 mL/min/kg. For the same compound, the pEC50 [2] was 10.18, the AUC(0-t) at 24 h [16] was 208 ng·h/mL and the CLint scaled [32] was 3.8 mL/min/kg. The Cmax [33] was 49.1 ng/mL.
